Here are results for four compounds from patent US20100022491A1, “4-HYDROXY-2-OXO-2,3-DIHYDRO-1,3-BENZOTHIAZOL-7YL COMPOUNDS FOR MODULATION OF B2-ADRENORECEPTOR ACTIVITY” (ASTRAZENECA AB, priority 2006, published 2010).

Counter-ions that a name gives are not always drawn.

Test [1] concerns the target T1, recombinant human α1D receptor (Homo sapiens, UniProt P25100).
T1 construct: expressed in transfected cells; host or cells: HEK293
T1 sequence (P25100 1-572): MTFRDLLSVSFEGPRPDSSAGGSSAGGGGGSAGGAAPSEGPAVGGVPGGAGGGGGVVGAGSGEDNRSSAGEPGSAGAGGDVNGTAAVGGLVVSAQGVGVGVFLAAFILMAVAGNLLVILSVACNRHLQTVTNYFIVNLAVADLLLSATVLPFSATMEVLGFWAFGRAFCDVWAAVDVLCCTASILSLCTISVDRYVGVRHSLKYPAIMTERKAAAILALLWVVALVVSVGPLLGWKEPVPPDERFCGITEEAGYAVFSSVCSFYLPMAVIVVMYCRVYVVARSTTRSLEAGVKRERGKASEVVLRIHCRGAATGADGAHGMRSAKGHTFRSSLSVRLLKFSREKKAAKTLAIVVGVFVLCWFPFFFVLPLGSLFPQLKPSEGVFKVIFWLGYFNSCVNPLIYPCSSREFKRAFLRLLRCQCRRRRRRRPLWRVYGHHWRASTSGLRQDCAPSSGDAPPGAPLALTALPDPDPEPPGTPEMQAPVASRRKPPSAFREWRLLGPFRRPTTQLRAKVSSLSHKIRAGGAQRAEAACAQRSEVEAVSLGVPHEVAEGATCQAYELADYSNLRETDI
Kind of test: Adrenergic α1D selectivity binding assay ([3H]-prazosin). To be noted: inhibition of [3H]-prazosin (0.3 nM) binding, HEK293 membranes; read-out: α1 bind pIC50 (converted). The protocol:
Membranes were prepared from human embryonic kidney 293 (HEK293) cells expressing recombinant human α1D receptor. These were diluted in Assay Buffer (50 mM HEPES, 1 mM EDTA, 0.1% gelatin, pH 7.4) to provide a final concentration of membranes that gave a clear window between maximum and minimum specific binding.
(§1) Assays were performed in U-bottomed 96-well polypropylene plates. 10 μL [^3H]-prazosin (0.3 nM final concentration) and 10 μL of test compound (10× final concentration) were added to each test well. For each assay plate 8 replicates were obtained for [^3H]-prazosin binding in the presence of 10 μL vehicle (10% (v/v) DMSO in Assay Buffer; defining maximum binding) or 10 μL BMY7378 (10 μM final concentration; defining non-specific binding (NSB)). Membranes were then added to achieve a final volume of 100 μL. The plates were incubated for 2 hours at room temperature and then filtered onto PEI coated GF/B filter plates, pre-soaked for 1 hour in Assay Buffer, using a 96-well plate Tomtec cell harvester. Five washes with 250 μL wash buffer (50 mM HEPES, 1 mM EDTA, pH 7.4) were performed at 4° C. to remove unbound radioactivity. The plates were dried then sealed from underneath using Packard plate sealers and MicroScint-O (50 μL) was added to each well. The plates were sealed (TopSeal A) and filter-bound radioactivity was measured with a scintillation counter (TopCount, Packard BioScience) using a 3-minute counting protocol.
Total specific binding (B0) was determined by subtracting the mean NSB from the mean maximum binding. NSB values were also subtracted from values from all other wells. […] Data was fitted to a four parameter logistic equation to determine the compound potency, which was expressed as pIC50 (negative log molar concentration inducing 50% inhibition of [^3H]-prazosin binding).

The target of test [2] is T2, Adrenergic β2 (Homo sapiens, UniProt P07550).
T2 construct: Adherent H292 cells were removed from tissue culture flasks; endogenous in cells; host or cells: H292 cells
T2 sequence (P07550 whole entry): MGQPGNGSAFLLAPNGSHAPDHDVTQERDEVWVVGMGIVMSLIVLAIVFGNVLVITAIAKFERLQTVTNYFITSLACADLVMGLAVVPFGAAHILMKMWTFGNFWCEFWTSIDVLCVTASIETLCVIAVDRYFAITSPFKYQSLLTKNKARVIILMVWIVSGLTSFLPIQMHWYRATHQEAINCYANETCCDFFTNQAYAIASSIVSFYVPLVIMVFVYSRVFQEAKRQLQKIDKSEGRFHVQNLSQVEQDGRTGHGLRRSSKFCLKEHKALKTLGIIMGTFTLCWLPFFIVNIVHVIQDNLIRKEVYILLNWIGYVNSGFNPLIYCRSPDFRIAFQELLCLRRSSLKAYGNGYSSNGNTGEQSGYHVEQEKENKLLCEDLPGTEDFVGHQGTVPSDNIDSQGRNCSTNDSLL
Briefly: Adrenergic β2 mediated cAMP production in H292 cells. It is filed as cell-based. To be noted: for EC50: H292 cells, cAMP by AlphaScreen, 60 minutes at room temperature, rolipram 300 μM, read-out: β2 pEC50 (converted); for β2 Int Act: Intrinsic Activity as a fraction relative to the maximum activity determined for formoterol. The protocol: Adrenergic β2 mediated cAMP production
H292 cells were grown in 225 cm2 flasks incubator at 37° C., 5% CO2 in RPMI medium containing, 10% (v/v) FBS (foetal bovine serum) and 2 mM L-glutamine.
Adherent H292 cells were removed from tissue culture flasks by treatment with Accutase™ cell detachment solution for 15 minutes. Flasks were incubated for 15 minutes in a humidified incubator at 37° C., 5% CO2. Detached cells were re-suspended in RPMI media (containing 10% (v/v) FBS and 2 mM L-glutamine) at 0.05×10^6 cells per mL. 5000 cells in 100 μL were added to each well of a tissue-culture-treated 96-well plate and the cells incubated overnight in a humidified incubator at 37° C., 5% CO2. The culture media was removed and cells were washed twice with 100 μL assay buffer and replaced with 50 μL assay buffer (HBSS solution containing 10 mM HEPES pH7.4 and 5 mM glucose). Cells were rested at room temperature for 20 minutes after which time 25 μL of rolipram (1.2 mM made up in assay buffer containing 2.4% (v/v) dimethylsulphoxide) was added. Cells were incubated with rolipram for 10 minutes after which time test compounds were added and the cells were incubated for 60 minutes at room temperature. The final rolipram concentration in the assay was 300 μM and final vehicle concentration was 1.6% (v/v) dimethylsulphoxide. The reaction was stopped by removing supernatants, washing once with 100 μL assay buffer and replacing with 50 μL lysis buffer. The cell monolayer was frozen at −80° C. for 30 minutes (or overnight).
The concentration of cAMP (cyclic adenosine monophosphate) in the cell lysate was determined using AlphaScreen™ methodology. The frozen cell plate was thawed for 20 minutes on a plate shaker then 10 μL of the cell lysate was transferred to a 96-well white plate. 40 μL of mixed AlphaScreen™ detection beads pre-incubated with biotinylated cAMP, was added to each well and the plate incubated at room temperature for 10 hours in the dark. The AlphaScreen™ signal was measured using an EnVision spectrophotometer (Perkin-Elmer Inc.) with the recommended manufacturer's settings. cAMP concentrations were determined by reference to a calibration curve determined in the same experiment using standard cAMP concentrations. Concentration response curves for agonists were constructed and data was fitted to a four parameter logistic equation to determine both the pEC50 and Intrinsic Activity. Intrinsic Activity was expressed as a fraction relative to the maximum activity determined for formoterol in each experiment.
Background: cAMP levels reflect the balance of adenylyl cyclase and phosphodiesterase activity.

For test [3], the target named is T3, recombinant human Dopamine Subtype D2s receptors (Homo sapiens, UniProt P14416).
T3 construct: purchased Perkin Elmer
T3 sequence (P14416 1-414 isoform P14416-2): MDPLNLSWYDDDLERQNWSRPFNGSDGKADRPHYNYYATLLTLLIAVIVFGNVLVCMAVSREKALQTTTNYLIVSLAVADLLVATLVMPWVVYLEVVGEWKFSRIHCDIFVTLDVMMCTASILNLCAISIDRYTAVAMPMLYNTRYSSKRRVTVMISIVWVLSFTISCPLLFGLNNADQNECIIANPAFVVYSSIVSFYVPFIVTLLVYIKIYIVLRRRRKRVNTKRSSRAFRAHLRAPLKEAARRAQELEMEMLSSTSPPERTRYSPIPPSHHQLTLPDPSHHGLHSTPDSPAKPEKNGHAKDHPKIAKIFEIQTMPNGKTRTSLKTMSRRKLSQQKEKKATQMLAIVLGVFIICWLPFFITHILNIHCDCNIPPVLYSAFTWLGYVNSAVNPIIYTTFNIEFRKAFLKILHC
Briefly: Dopamine D2 selectivity binding assay ([3H]-spiperone). Particulars: inhibition of [3H]-spiperone (0.16 nM) binding; read-out: D2 bind pIC50 (converted). The protocol:
Membranes containing recombinant human Dopamine Subtype D2s receptors were obtained from Perkin Elmer. These were diluted in Assay Buffer (50 mM HEPES, 1 mM EDTA, 120 mM NaCl, 0.1% gelatin, pH 7.4) to provide a final concentration of membranes that gave a clear window between maximum and minimum specific binding.
Assays were performed in U-bottomed 96-well polypropylene plates. 30 μL [^3H]-spiperone (0.16 nM final concentration) and 30 μL of test compound (10× final concentration) were added to each test well. For each assay plate 8 replicates were obtained for [^3H]-spiperone binding in the presence of 30 μL vehicle (10% (v/v) DMSO in Assay Buffer; defining maximum binding) or 30 μL Haloperidol (10 μM final concentration; defining non-specific binding (NSB)). Membranes were then added to achieve a final volume of 300 μL. The plates were incubated for 2 hours at room temperature and then filtered onto PEI coated GF/B filter plates, pre-soaked for 1 hour in Assay Buffer, using a 96-well plate Tomtec cell harvester. Five washes with 250 μL wash buffer (50 mM HEPES, 1 mM EDTA, 120 mM NaCl, pH 7.4) were performed at 4° C. to remove unbound radioactivity. The plates were dried then sealed from underneath using Packard plate sealers and MicroScint-O (50 μL) was added to each well. The plates were sealed (TopSeal A) and filter-bound radioactivity was measured with a scintillation counter (TopCount, Packard BioScience) using a 3-minute counting protocol.
Total specific binding (B0) was determined by subtracting the mean NSB from the mean maximum binding. NSB values were also subtracted from values from all other wells. […] Data was fitted to a four parameter logistic equation to determine the compound potency, which was expressed as pIC50 (negative log molar concentration inducing 50% inhibition of [^3H]-spiperone binding).

For test [4], the target named is T4, recombinant human adrenergic beta 1 receptors (Homo sapiens, UniProt P08588).
T4 construct: purchased Euroscreen
T4 sequence (P08588 whole entry): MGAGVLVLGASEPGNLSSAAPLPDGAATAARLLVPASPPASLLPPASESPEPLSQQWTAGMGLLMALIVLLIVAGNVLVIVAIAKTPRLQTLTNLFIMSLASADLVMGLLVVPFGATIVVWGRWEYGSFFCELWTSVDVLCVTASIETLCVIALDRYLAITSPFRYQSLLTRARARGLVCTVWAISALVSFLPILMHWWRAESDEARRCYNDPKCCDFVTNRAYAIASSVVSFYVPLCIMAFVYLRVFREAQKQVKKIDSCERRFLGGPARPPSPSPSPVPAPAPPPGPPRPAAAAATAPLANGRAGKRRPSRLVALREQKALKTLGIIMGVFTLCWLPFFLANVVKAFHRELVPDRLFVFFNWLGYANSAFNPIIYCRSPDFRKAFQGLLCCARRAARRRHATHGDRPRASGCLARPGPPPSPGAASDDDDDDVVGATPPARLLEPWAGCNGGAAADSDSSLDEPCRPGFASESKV
Kind of test: Adrenergic β1 selectivity binding assay ([125I]-Iodocyanopindolol). To be noted: inhibition of [125I]-Iodocyanopindolol (0.036 nM) binding; read-out: β1 bind p IC50 (converted). The protocol: Membranes containing recombinant human adrenergic beta 1 receptors were obtained from Euroscreen. These were diluted in Assay Buffer (50 mM HEPES, 1 mM EDTA, 120 mM NaCl, 0.1% gelatin, pH 7.4) to provide a final concentration of membranes that gave a clear window between maximum and minimum specific binding.
as §1, with “[^125I]-Iodocyanopindolol (0.036” for “[^3H]-prazosin (0.3”, “[^125I]-Iodocyanopindolol” for “[^3H]-prazosin”, “Propranolol” for “BMY7378”, “EDTA, 120 mM NaCl,” for “EDTA,”
Total specific binding (B0) was determined by subtracting the mean NSB from the mean maximum binding. NSB values were also subtracted from values from all other wells. […] Data was fitted to a four parameter logistic equation to determine the compound potency, which was expressed as pIC50 (negative log molar concentration inducing 50% inhibition of [^125I]-Iodocyanopindolol binding).

Regarding `CC(C)(CO)CN(CCNCCc1ccc(O)c2[nH]c(=O)sc12)C(=O)CCNCCc1ccc(Cl)cc1` [Example 40, N^3-[2-(4-Chlorophenyl)ethyl]-N-(3-hydroxy-2,2-dimethylpropyl)-N-(2-{[2-(4-hydroxy-2-oxo-2,3-dihydro-1,3-benzothiazol-7-yl)ethyl]amino}ethyl)-β-alaninamide diacetic acid salt], in test [1], the IC50 was 794 nM. Also, in test [2], the EC50 was 63.1 nM and the “β2 Int Act” value stood at 0.64. Moreover, the IC50 in test [3] is 794 nM.
On to `O=C(CCNCCc1ccc(Cl)c(Cl)c1)N(CCNCCc1ccc(O)c2[nH]c(=O)sc12)C1CCC(F)(F)CC1` [Example 49, N^3-[2-(3,4-Dichlorophenyl)ethyl]-N^1-(4,4-difluorocyclohexyl)-N^1-(2-{[2-(4-hydroxy-2-oxo-2,3-dihydro-1,3-benzothiazol-7-yl)ethyl]amino}ethyl)-β-alaninamide bis-trifluoroacetic acid salt], for which, in test [1], the IC50 is 631 nM. Besides, in test [2], the EC50 is 7.94 nM and the “β2 Int Act” value turned out to be 0.59. In test [4], the IC50 is 1580 nM.
Regarding `COc1cccc(CCNCCC(=O)N(CCNCCc2ccc(O)c3[nH]c(=O)sc23)C2CCCCC2)c1` [Example 70, N^1-Cyclohexyl-N^1-(2-{[2-(4-hydroxy-2-oxo-2,3-dihydro-1,3-benzothiazol-7-yl)ethyl]amino}ethyl)-N^3-[2-(3-methoxyphenyl)ethyl]-β-alaninamide bis-trifluoroacetic acid salt], the IC50 in test [1] was 126 nM; in test [3], 200 nM. Moreover, in test [2], the EC50 was 5.01 nM. In addition, the “β2 Int Act” value in test [2] is 0.84.
Consider `O=C(CCNCCC(F)(F)F)N(CCNCCc1ccc(O)c2[nH]c(=O)sc12)C1CCCCC1` [Example 80, N^1-Cyclohexyl-N^1-(2-{[2-(4-hydroxy-2-oxo-2,3-dihydro-1,3-benzothiazol-7-yl)ethyl]amino}ethyl)-N^3-(3,3,3-trifluoropropyl)-β-alaninamide bis-trifluoroacetic acid salt], for which the IC50 in test [1] was 1260 nM. In addition, in test [2], the EC50 is 126 nM and the “β2 Int Act” value turned out to be 0.86. Further, in test [3], the IC50 was 398 nM.
